What was measured:
[1] = test system: TNF-α production in BALB/3T3 cells stimulated by okadaic acid; test: Inhibition of TNF-α production (in vitro) in BALB/3T3 cells stimulated by okadaic acid, ELISA; assay type: cell-based; conditions: for TNF-α production relative to the TNF-α production of the control: okadaic acid 0.2 μM, 24 hours, control = 100%; for TNF-α production inhibitory effect, overall assessment (in words): BALB/3T3 cells, okadaic acid stimulation
Protocol: In response to stimulation by okadaic acid (9,10-deepithio-9,10-didehydroacanthifolicin), BALB/3T3 cells produce TNF-α. The compounds of the present invention were investigated in terms of inhibitory effect on TNF-α production.
An MEM medium (product of Nissui) containing 10% fetal calf serum (product of Biocell Laboratory) was injected into 12-well multiplates (product of Corning), and BALB/3T3 cells were disseminated at 2×10^5 cells/well. The cells were cultured in a carbon dioxide gas incubator (5% Co2, humidified, 37° C.). Subsequently, KAVA-1, KAVA-2, KAVA-3, KAVA-4, or KAVA-5 was added to the wells at a concentration shown in FIG. 1, and the cells were cultured for one hour. No KAVA compound was added to the control wells. After completion of culturing, okadaic acid (carcinogenisis promoter isolated from Halichondria okadai) was added to each well at a final concentration of 0.2 μM, and culturing was performed for 24 hours. After completion of this culturing, the TNF-α concentration of the supernatant of each well was measured by means of ELISA system (product of Genzyme). In FIG. 1, the amount of TNF-α release corresponding to each compound concentration is represented by a percent concentration based on the amount of TNF-α release measured for the control (100%).

[2] = test system: TNF-α production in serum induced by LPS; test: TNF-α inhibitory effect (in vivo), LPS-induced serum TNF-α in mice, ELISA; parameters: species or system BALB/c mice; conditions: 40 mg/kg intraperitoneally, LPS 50 μg/mouse i.p. immediately after, serum 90 minutes after LPS
Protocol: Male BALB/cAnNCrj mice of 6 weeks age were purchased from Japan Charles River, and those having body weights of 30 g or lower were tested.
Seven mice groups, each group consisting of six mice, were provided; i.e., 1) a group to which distilled water for injection was administered (non-treated group) (N); 2) a group to which a 0.3% carboxymethyl cellulose-Na (0.3% CMC-Na) suspension was administered (control group) (C); and 3) five groups to which KAVA-1, KAVA-2, KAVA-3, KAVA-4, and KAVA-5, respectively, were administered (0.3% CMC-Na was used as a solvent).
Each of KAVA-1, KAVA-2, KAVA-3, KAVA-4, and KAVA-5 was prepared to a drug liquid of 40 mg/10 ml. The liquid was intraperitoneally administered at 10 ml/kg (dose: 40 mg/kg), and 0.3% CMC-Na was intraperitoneally administered at 10 ml/kg to each corresponding group. Lipo-polysaccharide (LPS) (product of SIGMA) was dissolved in physiological saline, and the solution was intraperitoneally administered to each mouse in an amount of 0.2 ml (50 μg/mouse) immediately after administration of the drug liquid.
After 90 minutes from administration of LPS, blood was collected from the eye socket, and the collected sample was allowed to stand for one hour at room temperature. Subsequently, the sample was centrifuged at 11,000 rpm for five minutes, and the serum was collected. […]

| Structure (SMILES) | TNF-α production relative to the TNF-α production of the control ([1]; 100 μM compound) | inhibitory effect on TNF-α production (in words) ([1]; concentrations of 50 μM or less) | inhibition of serum TNF-α production compared with the control group (C) (in words) [2] | TNF-α production inhibitory effect, overall assessment (in words) [1] | TNF-α production relative to the TNF-α production of the control ([1]; 10 μM compound) | TNF-α production relative to the TNF-α production of the control ([1]; 50 μM compound) |
| --- | --- | --- | --- | --- | --- | --- |
| COC1=CC(=O)O[C@@H](/C=C/c2ccccc2)C1 [KAVA-5, (+)-Kavain] | approximately 39% |  |  |  |  |  |
| COC1=CC(=O)O[C@@H](CCc2ccccc2)C1 [KAVA-4, (+)-Dihydrokavain] | approximately 60% | no inhibitory effect | significantly (p<0.5) inhibited TNF-α production |  |  |  |
| COC1=CC(=O)O[C@@H](/C=C/c2ccc3c(c2)OCO3)C1 [KAVA-1, (+)-Methysticin] | approximately 39% |  | almost comparable to that exerted by KAVA-2 |  |  |  |
| COc1ccc(/C=C/c2cc(OC)cc(=O)o2)cc1 [KAVA-2, Yangonin] | approximately 22% |  |  | strong TNF-A production inhibitory effect |  |  |
| COc1cc(/C=C/c2ccccc2)oc(=O)c1 [KAVA-3, Desmethoxyyangonin] | approximately 0% |  |  | strong TNF-A production inhibitory effect | approximately 60% | approximately 22% |

Source: patent US7199152B2, “TNF-α production inhibitor comprising kavalactone as an active ingredient” (Meiji Dairies Corporation, priority 2000, dated 2007)
